{"source": "patent US4889857A", "about": "“Quinolonecarboxylic acid compounds and pharmaceutical use thereof” (Yoshitomi Pharmaceutical Industries, Ltd., priority 1987, dated 1989)", "key": {"[1]": {"system": "Alcaligenes faecalis NCTC 415", "assay": "Antibacterial activity in vitro (MIC)", "type": "cell-based", "settings": "NCTC415, inoculum 10^6 cells/ml"}, "[2]": {"system": "Staphylococcus epidermidis ATCC 12983", "assay": "Antibacterial activity in vitro (MIC)", "type": "cell-based"}, "[3]": {"system": "Aerobacter aerogenes IFO 12979", "assay": "Antibacterial activity in vitro (MIC)", "type": "cell-based", "settings": "Klebsiella aerogenes, IFO12979"}, "[4]": {"system": "Streptococcus pyogenes S-8", "assay": "Antibacterial activity in vitro (MIC)", "type": "cell-based"}, "[5]": {"system": "Staphylococcus aureus FDA 209P*", "assay": "Antibacterial activity in vitro (MIC), horse blood medium", "type": "cell-based", "settings": "FDA209P", "experimental": "The antibacterial activities in vitro (minimum inhibitory concentration, MIC, μg/ml) of the test compounds were measured according to the standard method of the Japanese Chemotherapy Society (Chemotherapy, Vol. 23, p.1126, 1974).\n(Inoculum size: 10^6 cells/ml, Organisms with asterisk (*) were\ncultivated in a 10% horse bloodadded medium.)"}, "[6]": {"system": "Enterobacter cloacae IFO 12937", "assay": "Antibacterial activity in vitro (MIC)", "type": "cell-based"}, "[7]": {"system": "Staphylococcus aureus 308A-1", "assay": "Antibacterial activity in vitro (MIC)", "type": "cell-based"}, "[8]": {"system": "Enterococcus faecalis LS-101", "assay": "Antibacterial activity in vitro (MIC)", "type": "cell-based"}, "[9]": {"system": "Streptococcus pyogenes E-14", "assay": "Antibacterial activity in vitro (MIC)", "type": "cell-based"}, "[10]": {"system": "S. pneumoniae Type III", "assay": "MIC of the infecting organism (Experiment 2)", "type": "cell-based", "settings": "Streptococcus pneumoniae; Table 2", "experimental": "(§1) Experimental infection was caused by inoculating male mice intraperitoneally with each organism. Each of the test compounds was administered orally to the mice, one hour after the inoculation. […] The Minimum inhibitory concentrations (MIC) were also measured."}, "[11]": {"system": "S. pyogenes C-203", "assay": "MIC of the infecting organism (Experiment 2)", "type": "cell-based", "settings": "Streptococcus pyogenes, C203; Table 2", "experimental": "as §1"}, "[12]": {"system": "S. aureus 109(MRSA)", "assay": "MIC of the infecting organism (Experiment 2)", "type": "cell-based", "settings": "Staphylococcus aureus, Table 2", "experimental": "as §1"}, "[13]": {"system": "E. coli KC-14", "assay": "MIC of the infecting organism (Experiment 2)", "type": "cell-based", "settings": "Escherichia coli, KC14", "experimental": "(§2) Experimental infection was caused by inoculating male mice intraperitoneally with each organism. Each of the test compounds was administered orally to the mice, one hour after the inoculation. The therapeutic effect of each compounds was judged by using a 50% effective dose (ED50) from the survival rate on day 7 after injection by the Probit method as described in Proc. Soc. Exp. Biol. Med., Vol. 57, p.261-264, 1944. The Minimum inhibitory concentrations (MIC) were also measured."}, "[14]": {"system": "S. aureus Smith", "assay": "MIC of the infecting organism (Experiment 2)", "type": "cell-based", "settings": "Staphylococcus aureus; Table 2; read-out: MIC", "experimental": "as §2"}, "[15]": {"system": "Pseudomonas cepacia 739", "assay": "Antibacterial activity in vitro (MIC)", "type": "cell-based", "settings": "Burkholderia cepacia, inoculum 10^6 cells/ml"}, "[16]": {"system": "Flavobacterium meningosepticum IFO 12535", "assay": "Antibacterial activity in vitro (MIC)", "type": "cell-based", "settings": "Elizabethkingia meningoseptica, IFO12535; inoculum 10^6 cells/ml"}, "[17]": {"assay": "Acute toxicity", "settings": "mouse, in vivo", "experimental": "The compound A was intraveneously (iv) or orally (po) administered to a group of male mice once. After 10 days, the LD50 values were determined by the Litchfield-Wilcoxon method."}, "[18]": {"system": "Streptocccus pneumoniae Type 1", "assay": "Antibacterial activity in vitro (MIC)", "type": "cell-based"}, "[19]": {"system": "Aerococcus viridans IFO 12219", "assay": "microbe, parasite or virus in culture", "settings": "IFO12219"}, "[20]": {"settings": "inoculum 10^6 cells/ml, 10% horse blood-added medium, read-out: MIC"}}, "note": "Like-named read-outs stand apart in the source and are kept apart here."}
{"smiles": "CNCC1CN(c2c(F)cc3c(=O)c(C(=O)O)cn(C4CC4)c3c2F)CCO1", "note": "(centres unmarked) [Compound A, 1-cyclopropyl-6,8-difluoro-1,4,-dihydro-7-[2-(methylaminomethyl)morpholino]-4-oxoquinoline-3-carboxylic acid]", "values": [{"measurement": "MIC", "setting": "[1]", "result": 1.56, "unit": "µg/mL"}, {"measurement": "MIC", "setting": "[2]; ATCC12983", "result": 0.05, "unit": "µg/mL"}, {"measurement": "MIC", "setting": "[3]", "result": 0.2, "unit": "µg/mL"}, {"measurement": "MIC", "setting": "[4]; S8", "result": 0.1, "unit": "µg/mL"}, {"measurement": "MIC", "setting": "[5]", "result": 0.025, "unit": "µg/mL"}, {"measurement": "MIC", "setting": "[6]; IFO12937", "result": 0.78, "unit": "µg/mL"}, {"measurement": "MIC", "setting": "[7]; 308A1", "result": 0.05, "unit": "µg/mL"}, {"measurement": "MIC", "setting": "[8]; LS101", "result": 0.1, "unit": "µg/mL"}, {"measurement": "MIC", "setting": "[9]; E14", "result": 0.1, "unit": "µg/mL"}, {"measurement": "MIC", "setting": "[10]", "result": 0.05, "unit": "µg/mL"}, {"measurement": "MIC", "setting": "[11]", "result": 0.05, "unit": "µg/mL"}, {"measurement": "MIC", "setting": "[12]", "result": 0.2, "unit": "µg/mL"}, {"measurement": "MIC", "setting": "[13]; Table 2, read-out: MIC", "result": 0.05, "unit": "µg/mL"}, {"measurement": "MIC", "setting": "[14]", "result": 0.012, "unit": "µg/mL"}, {"measurement": "MIC", "setting": "[15]", "result": 1.56, "unit": "µg/mL"}, {"measurement": "MIC", "setting": "[16]", "result": 1.56, "unit": "µg/mL"}, {"measurement": "LD50 at 240 h", "setting": "[17]; iv", "result": 210, "unit": "mg/kg"}, {"measurement": "LD50 at 240 h", "setting": "[17]; po", "result": "> 3000", "unit": "mg/kg"}, {"measurement": "MIC", "setting": "[18]", "result": 0.05, "unit": "µg/mL"}, {"measurement": "MIC", "setting": "[19]", "result": 0.1, "unit": "µg/mL"}]}
{"smiles": "CC1COc2c(N3CCN(C)CC3)c(F)cc3c(=O)c(C(=O)O)cn1c23", "note": "(centres unmarked) [OFLX, 9-fluoro-3-methyl-10-(4-methyl-1-piperazinyl)-7-oxo-2,3-dihydro-7H-pyrido[1,2,3-de][1,4]-benzoxazine-6-carboxylic acid]", "values": [{"measurement": "MIC", "setting": "[1]", "result": 0.78, "unit": "µg/mL"}, {"measurement": "MIC", "setting": "[2]; ATCC12983, inoculum 10^6 cells/ml, 10% horse blood-added medium, read-out: MIC", "result": 0.39, "unit": "µg/mL"}, {"measurement": "MIC", "setting": "[3]; inoculum 10^6 cells/ml, read-out: MIC", "result": 1.56, "unit": "µg/mL"}, {"measurement": "MIC", "setting": "[4]; S8, inoculum 10^6 cells/ml, 10% horse blood-added medium, read-out: MIC", "result": 0.78, "unit": "µg/mL"}, {"measurement": "MIC", "setting": "[5]; [20]", "result": 0.2, "unit": "µg/mL"}, {"measurement": "MIC", "setting": "[6]; IFO12937, inoculum 10^6 cells/ml, read-out: MIC", "result": 0.39, "unit": "µg/mL"}, {"measurement": "MIC", "setting": "[7]; 308A1, inoculum 10^6 cells/ml, read-out: MIC", "result": 0.39, "unit": "µg/mL"}, {"measurement": "MIC", "setting": "[8]; LS101, inoculum 10^6 cells/ml, 10% horse blood-added medium, read-out: MIC", "result": 0.78, "unit": "µg/mL"}, {"measurement": "MIC", "setting": "[9]; E14, inoculum 10^6 cells/ml, 10% horse blood-added medium, read-out: MIC", "result": 0.78, "unit": "µg/mL"}, {"measurement": "MIC", "setting": "[10]", "result": 1.56, "unit": "µg/mL"}, {"measurement": "MIC", "setting": "[11]", "result": 0.78, "unit": "µg/mL"}, {"measurement": "MIC", "setting": "[12]", "result": 0.78, "unit": "µg/mL"}, {"measurement": "MIC", "setting": "[13]", "result": 0.025, "unit": "µg/mL"}, {"measurement": "MIC", "setting": "[14]", "result": 0.2, "unit": "µg/mL"}, {"measurement": "MIC", "setting": "[15]", "result": 0.78, "unit": "µg/mL"}, {"measurement": "MIC", "setting": "[16]", "result": 0.78, "unit": "µg/mL"}, {"measurement": "MIC", "setting": "[18]; [20]", "result": 0.78, "unit": "µg/mL"}, {"measurement": "MIC", "setting": "[19]", "result": 3.13, "unit": "µg/mL"}]}
